Experiment [1] has as its system RPMI8226 multiple myeloma cells. Briefly: combination of SAHA and CEM451 with RPMI8226 multiple myeloma cells. It is filed as cell-based. The note with it: for Effect of CEM451 / Effect of SAHA: RPMI8226.
Another experiment deals with p38 MAPK alpha (Homo sapiens, UniProt Q16539). Put plainly: in vitro kinase assay, p38 MAPK alpha catalytic activity. It is filed as biochemical. How it is done:
(§1) FIGS. 6A-6C. In vitro kinase assays for p38a (FIG. 6A), p38β(FIG. 6B), and […] (FIG. 6C) at 100 nM.
(§2) Quinazoline derivatives were initially tested with various cancer types of cell lines using a cell-based assay.

The next experiment deals with Hut78 cells. Put plainly: combination study of HDAC inhibitors and CEM451 with Hut78 cells. In kind it is cell-based. The note with it: for Effect of CEM451 / Effect of Romidepsin / Effect of SAHA: Hut78.
In another experiment the target is p38 MAPK beta (Homo sapiens, UniProt Q15759). Put plainly: in vitro kinase assay, p38 MAPK beta catalytic activity. In kind it is biochemical. How it is done: as §1, §2
Sequence of p38 MAPK beta (Q15759 whole entry): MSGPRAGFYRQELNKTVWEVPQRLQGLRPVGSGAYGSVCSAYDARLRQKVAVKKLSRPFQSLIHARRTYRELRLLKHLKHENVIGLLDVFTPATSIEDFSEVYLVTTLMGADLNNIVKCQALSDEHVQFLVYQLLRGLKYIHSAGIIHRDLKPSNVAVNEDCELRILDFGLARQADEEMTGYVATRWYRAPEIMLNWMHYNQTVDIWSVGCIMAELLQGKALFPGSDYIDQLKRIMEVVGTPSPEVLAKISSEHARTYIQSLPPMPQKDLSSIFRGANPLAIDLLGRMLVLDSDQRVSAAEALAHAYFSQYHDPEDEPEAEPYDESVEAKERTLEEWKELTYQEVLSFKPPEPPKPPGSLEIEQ
For a further experiment, the system named is K562 CML cells. Put plainly: cell-based assay, K562 CML cells. The note with it: Homo sapiens, read-out: IC50 against K562 CML cells.
Excerpt: as §2

The test system of the next experiment is hematopoietic cell lines. Put plainly: antitumor activity against hematopoietic cell lines. In kind it is cell-based.
Excerpt: as §2

Molecules are shown by their SMILES. pIC50: −log10 of the molar value.

Sequence of p38 MAPK alpha (Q16539 whole entry): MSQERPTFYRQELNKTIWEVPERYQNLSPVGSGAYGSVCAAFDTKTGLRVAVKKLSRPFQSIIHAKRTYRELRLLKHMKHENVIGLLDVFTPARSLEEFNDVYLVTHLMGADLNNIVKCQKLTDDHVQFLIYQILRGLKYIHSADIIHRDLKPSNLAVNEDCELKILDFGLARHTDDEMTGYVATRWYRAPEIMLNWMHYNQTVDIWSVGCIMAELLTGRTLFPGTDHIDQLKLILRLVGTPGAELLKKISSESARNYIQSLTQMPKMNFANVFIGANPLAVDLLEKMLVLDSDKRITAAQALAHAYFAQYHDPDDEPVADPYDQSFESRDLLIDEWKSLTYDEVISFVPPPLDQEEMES

Take `Cc1ccc(NC(=O)c2cccc(C(F)(F)F)c2)cc1Nc1ncnc2nc(NC3CC3)ncc12` [CEM451, N-(3-((7-(cyclopropylamino)pyrimido[4,5-d]pyrimidin-4-yl)amino)-4-methylphenyl)-3-(trifluoromethyl)benzamide]: the “Effect of CEM451” value in experiment [1] (CEM451 5 μM) is listed as 0.47; in experiment [1] (CEM451 10 μM) it was 0.71; in experiment [1] (CEM451 15 μM), 0.81; with Hut78 cells (Romidepsin combination study, CEM451 5 μM), 0.57; in the experiment with Hut78 cells (Romidepsin combination study, CEM451 10 μM), 0.72; in the experiment on Hut78 cells (Romidepsin combination study, CEM451 15 μM) it was 0.83. For the same compound, the “Effect of CEM451” value in the experiment on Hut78 cells (high doses study with SAHA, CEM451 5 μM) came out at 0.48; in the experiment with Hut78 cells (high doses study with SAHA, CEM451 10 μM) it was 0.65; in the experiment on Hut78 cells (high doses study with SAHA, CEM451 15 μM), 0.81; with Hut78 cells (low doses study, CEM451 0.5 μM), 0.24; in the experiment on Hut78 cells (low doses study, CEM451 1 μM), 0.26; with Hut78 cells (low doses study, CEM451 3 μM), 0.45. Besides, the “effect in combination with SAHA” value (in experiment [1] (RPMI8226 MM cells); in the experiment with Hut78 cells (Hut78 CTCL cells)) was “synergistic effects” throughout. Moreover, the pIC50 at p38 MAPK alpha was 8.21; at p38 MAPK beta, 7.89; with K562 CML cells it was 6.27. Moreover, the “antitumor activities against hematopoietic cell lines” value in the experiment on hematopoietic cell lines is listed as “broadly showed antitumor activities”.

On to `C/C=C1\NC(=O)[C@H]2CSSCC/C=C/[C@H](CC(=O)N[C@H](C(C)C)C(=O)N2)OC(=O)[C@H](C(C)C)NC1=O` [Romidepsin, reference compound], for which the entries for the “Effect of Romidepsin” value in the experiment with Hut78 cells (Romidepsin 0.001 μM), with Hut78 cells (Romidepsin 0.0015 μM) and in the experiment on Hut78 cells (Romidepsin 0.002 μM) were 0.1, 0.58 and 0.92, respectively.

Take `O=C(CCCCCCC(=O)Nc1ccccc1)NO` [SAHA, reference compound]: the “Effect of SAHA” value in experiment [1] (SAHA 0.6 μM) is recorded as 0.63; in experiment [1] (SAHA 0.9 μM), 0.8; in experiment [1] (SAHA 1.2 μM) it was 0.91; in the experiment with Hut78 cells (high doses study, SAHA 0.6 μM), 0.16; in the experiment with Hut78 cells (high doses study, SAHA 0.9 μM), 0.27; in the experiment with Hut78 cells (high doses study, SAHA 1.2 μM) it was 0.74. In addition, the “Effect of SAHA” value in the experiment on Hut78 cells (low doses study, SAHA 0.6 μM) is given as 0.3; in the experiment with Hut78 cells (low doses study, SAHA 0.9 μM), 0.59; with Hut78 cells (low doses study, SAHA 1.2 μM), 0.84.
